# Like-named read-outs stand apart in the source and are kept apart here.
# Legend:
# human FLAP = human FLAP (Homo sapiens (Human), UniProt P20292); assay: FLAP binding assay (HTRF format); details: HTRF format
# Method in brief: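 Binding of compounds to FLAP read out as HTRF ratio. Values are the mean of two assay plates, each sample run in duplicate per plate.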
# [1] = system: leukotriene pathway in human whole blood (LTB4 levels); assay: Human whole blood assay (A23187-stimulated LTB4); assay type: cell-based; details: Homo sapiens, read-out: LTB4 IC50 1:1
# Protocol: The ability of the compounds of the present invention to treat a FLAP-mediated disease and/or disorder, or associated symptoms or complications thereof, was determined using the following procedures. Binding assay data represent the average value obtained from two different assay plates, with samples run in duplicate on each plate. Human whole blood assay data represent a single replicate on an assay plate using whole blood from at least one healthy donor.
# An in vitro cellular assay was performed using human whole blood collected in heparin-containing tubes, which was used to test the ability of compounds to modulate the leukotriene pathway in human whole blood. The blood was diluted 1:1 in RPMI medium, pre-incubated for 15 min at 37° Celsius with test compounds at various concentrations, and then stimulated with calcium ionophore, A23187 (7 μg/mL), for 30 min at 37° Celsius. The samples were then centrifuged and plasma was removed. The plasma was diluted in assay buffer and LTB4 levels were measured using a commercial kit (Enzo Life Sciences). The concentration of each compound that was required for half-maximal inhibition (modulation) of recombinant enzyme activity (IC50) was calculated by a 4-parameter equation using the program GraphPad Prism (GraphPad software).
# [2] = human FLAP wild type, average of two plates, duplicates
# [3] = human whole blood diluted 1:1 in RPMI, A23187-stimulated LTB4
# [4] = human whole blood diluted 1:1, A23187-stimulated
# Sequence of human FLAP (P20292 whole entry): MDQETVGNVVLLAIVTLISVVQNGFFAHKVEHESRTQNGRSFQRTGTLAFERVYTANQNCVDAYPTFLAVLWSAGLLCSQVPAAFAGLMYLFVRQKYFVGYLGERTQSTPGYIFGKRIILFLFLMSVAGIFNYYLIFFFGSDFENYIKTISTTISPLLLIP
Ki (human FLAP; [2]),"IC50 [1, 3]",Ki (human FLAP; wild type FLAP),"IC50 [1, 4]",Compound
1 nM,12 nM,,,"CC(NS(=O)(=O)c1ccccc1-c1ccc(-c2cnc(N)cn2)c(F)c1)C(F)(F)F (racemic) [Example 8, racemic 4′-(5-Aminopyrazin-2-yl)-3′-fluoro-N-(2,2,2-trifluoro-1-methylethyl)biphenyl-2-sulfonamide]"
3 nM,53 nM,,,"Nc1cnc(-c2ccc(-c3ccccc3S(=O)(=O)NC3CC4CCC3C4)cc2F)cn1 (racemic) [Example 10, racemic (endo)-4′-(5-Aminopyrazin-2-yl)-N-bicyclo[2.2.1]hept-2-yl-3′-fluorobiphenyl-2-sulfonamide]"
11 nM,117 nM,,,"Nc1cnc(-c2ccc(-c3ccccc3S(=O)(=O)N3CCN4CCCC4C3)cc2F)cn1 (racemic) [Example 61, racemic 5-[3-Fluoro-2′-(hexahydropyrrolo[1,2-a]pyrazin-2(1H)-ylsulfonyl)biphenyl-4-yl]pyrazin-2-amine]"
142 nM,111 nM,,,"CC1CN(S(=O)(=O)c2ccccc2-c2ccc(-c3cnc(N)cn3)c(F)c2)CC(C)N1 (racemic) [Example 62, Racemic-5-{2′-[(3,5-Dimethylpiperazin-1-yl)sulfonyl]-3-fluorobiphenyl-4-yl}pyrazin-2-amine]"
2 nM,23 nM,,,"Nc1cnc(-c2ccc(-c3ccccc3S(=O)(=O)N3CCCC(CCO)C3)cc2F)cn1 (racemic) [Example 71, racemic-2-(1-{[4′-(5-Aminopyrazin-2-yl)-3′-fluorobiphenyl-2-yl]sulfonyl}piperidin-3-yl)ethanol]"
6 nM,61 nM,,,"Nc1cnc(-c2ccc(-c3ccccc3S(=O)(=O)N3CCCC(N)C3)cc2F)cn1 (racemic) [Example 74, racemic 5-{2′-[(3-Aminopiperidin-1-yl)sulfonyl]-3-fluorobiphenyl-4-yl}pyrazin-2-amine]"
3 nM,342 nM,,,"CC(C)(C)OC(=O)NC1CCCN(S(=O)(=O)c2ccccc2-c2ccc(-c3cnc(N)cn3)c(F)c2)C1 (racemic) [Example 77, racemic tert-Butyl (1-{[4′-(5-aminopyrazin-2-yl)-3′-fluorobiphenyl-2-yl]sulfonyl}piperidin-3-yl)carbamate]"
1 nM,17 nM,,,"Nc1cnc(-c2ccc(-c3ccccc3S(=O)(=O)N[C@H]3CCCC[C@@H]3O)cc2F)cn1 (racemic) [Example 120, Racemic-(trans)-4′-(5-Aminopyrazin-2-yl)-3′-fluoro-N-(2-hydroxycyclohexyl)biphenyl-2-sulfonamide]"
1 nM,18 nM,,,"Nc1cnc(-c2ccc(-c3ccccc3S(=O)(=O)N[C@@H]3CCCC[C@@H]3CO)cc2F)cn1 (racemic) [Example 122, racemic (cis)-4′-(5-Aminopyrazin-2-yl)-3′-fluoro-N-[2-(hydroxymethyl)cyclohexyl]biphenyl-2-sulfonamide]"
133 nM,341 nM,,,"NC(=O)C1CCN1S(=O)(=O)c1ccccc1-c1ccc(-c2cnc(N)cn2)c(F)c1 (racemic) [Example 139, Racemic 1-{[4′-(5-Aminopyrazin-2-yl)-3′-fluorobiphenyl-2-yl]sulfonyl}azetidine-2-carboxamide]"
15 nM,41 nM,,,"Nc1cnc(-c2ccc(-c3ccccc3S(=O)(=O)N3CCOC(CO)C3)cc2F)cn1 (racemic) [Example 142, racemic (4-{[4′-(5-Aminopyrazin-2-yl)-3′-fluorobiphenyl-2-yl]sulfonyl}morpholin-2-yl)methanol]"
2 nM,37 nM,,,"Nc1cnc(-c2ccc(-c3ccccc3S(=O)(=O)N3CCC(O)(c4ccccc4)C3)cc2F)cn1 (racemic) [Example 180, racemic 1-{[4′-(5-Aminopyrazin-2-yl)-3′-fluorobiphenyl-2-yl]sulfonyl}-3-phenylpyrrolidin-3-ol]"
19 nM,21 nM,,,"Nc1cnc(-c2ccc(-c3ccccc3S(=O)(=O)N3C[C@H](O)[C@@H](N4CCCC4)C3)cc2F)cn1 (racemic) [Example 186, Racemic-1′-{[4′-(5-Aminopyrazin-2-yl)-3′-fluorobiphenyl-2-yl]sulfonyl}-1,3′-bipyrrolidin-4′-ol]"
5 nM,52 nM,,,"Nc1cnc(-c2ccc(-c3ccccc3SCC3CNC(=O)O3)cc2F)cn1 (racemic) [Example 203, racemic 5-({[4′-(5-Aminopyrazin-2-yl)-3′-fluorobiphenyl-2-yl]sulfanyl}methyl)-1,3-oxazolidin-2-one]"
127 nM,206 nM,,,"Nc1ncc(-c2ccc(-c3ccccc3S(=O)(=O)N3CCOC(CO)C3)cc2F)cn1 (racemic) [Example 252, racemic (4-{[4′-(2-Aminopyrimidin-5-yl)-3′-fluorobiphenyl-2-yl]sulfonyl}morpholin-2-yl)methanol]"
5 nM,34 nM,,,"Nc1ncc(-c2ccc(-c3ccccc3S(=O)(=O)N[C@H]3CCCC[C@H]3O)cc2F)cn1 (racemic) [Example 259, racemic 4′-(2-Aminopyrimidin-5-yl)-3′-fluoro-N-[(cis)-2-hydroxycyclohexyl]biphenyl-2-sulfonamide]"

Ki (human FLAP; [2]),"IC50 [1, 3]",Ki (human FLAP; wild type FLAP),"IC50 [1, 4]",Compound
10 nM,57 nM,,,"Nc1ncc(-c2ccc(-c3ccccc3S(=O)(=O)N[C@H]3CCCC[C@@H]3O)cc2F)cn1 (racemic) [Example 260, racemic 4′-(2-Aminopyrimidin-5-yl)-3′-fluoro-N-[(trans)-2-hydroxycyclohexyl]biphenyl-2-sulfonamide]"
,,15.7 nM,164 nM,"Nc1ncc(-c2ccc(-c3ccccc3S(=O)(=O)N3CCCC(CCO)C3)cc2F)cc1F (racemic) [Example 671, 2-(1-((4′-(6-Amino-5-fluoropyridin-3-yl)-3′-fluoro-[1,1′-biphenyl]-2-yl)sulfonyl)piperidin-3-yl)ethanol]"
,,13.7 nM,196 nM,"Nc1ncc(-c2ccc(-c3ccccc3S(=O)(=O)N3CCCC(CO)C3)cc2F)cc1F (racemic) [Example 672, (1-((4′-(6-Amino-5-fluoropyridin-3-yl)-3′-fluoro-[1,1′-biphenyl]-2-yl)sulfonyl)piperidin-3-yl)methanol]"
,,69.9 nM,377 nM,"Nc1cnc(-c2ccc(-c3ccccc3C(=O)N3CCOC(C(F)(F)F)C3)cc2F)cn1 (racemic) [Example 754, racemic 5-(3-Fluoro-2′-{[2-(trifluoromethyl)morpholin-4-yl]carbonyl}biphenyl-4-yl)pyrazin-2-amine]"
,,,19 nM,"Nc1cnc(-c2ccc(-c3ccccc3Oc3ncccn3)cc2F)cn1 [Example 526, 5-[3-Fluoro-2′-(pyrimidin-2-yloxy)biphenyl-4-yl]pyrazin-2-amine]"
,,,330 nM,"N#Cc1cc(Oc2ccccc2-c2ccc(-c3cnc(N)nc3)c(F)c2)ccn1 [Example 538, 4-{[4′-(2-Aminopyrimidin-5-yl)-3′-fluorobiphenyl-2-yl]oxy}pyridine-2-carbonitrile]"
,,,21 nM,"Nc1cnc(-c2ccc(-c3ccc(C(F)(F)F)cc3Oc3ncccn3)cc2F)cn1 [Example 551, 5-[3-Fluoro-2′-(pyrimidin-2-yloxy)-4′-(trifluoromethyl)biphenyl-4-yl]pyrazin-2-amine]"
,,,430 nM,"COc1cc(C(F)(F)F)ccc1-c1ccc(-c2cnc(N)cn2)c(F)c1 [Example 553, 5-[3-Fluoro-2′-methoxy-4′-(trifluoromethyl)biphenyl-4-yl]pyrazin-2-amine]"
,,,1540 nM,"Nc1nc(-c2ccc(-c3ccccc3S(=O)(=O)N3CCCC3)cc2F)cs1 [Example 579, 4-[3-Fluoro-2′-(pyrrolidin-1-ylsulfonyl)biphenyl-4-yl]-1,3-thiazol-2-amine]"
,,,1470 nM,"Nc1cnc(-c2ccc(-c3ccccc3O[C@H]3CCCNC3)cc2F)cn1 [Example 634, 5-{3-Fluoro-2′-[(3S)-piperidin-3-yloxy]biphenyl-4-yl}pyrazin-2-amine]"
,,,36.1 nM,"C[C@@H]([C@@H](O)c1ccccc1)N(C)S(=O)(=O)c1ccccc1-c1ccc(-c2ccc(N)nc2)c(F)c1 [Example 666, 4′-(6-Aminopyridin-3-yl)-3′-fluoro-N-((1S,2S)-1-hydroxy-1-phenylpropan-2-yl)-N-methyl-[1,1′-biphenyl]-2-sulfonamide]"
,,,526 nM,"CC(=O)NC1CCN(S(=O)(=O)c2ccccc2-c2ccc(-c3cnc(N)c(F)c3)c(F)c2)CC1 [Example 670, N-(1-((4′-(6-Amino-5-fluoropyridin-3-yl)-3′-fluoro-[1,1′-biphenyl]-2-yl)sulfonyl)piperidin-4-yl)acetamide]"
,,,186 nM,"N#Cc1nc(N)cnc1-c1ccc(-c2ccc(C(F)(F)F)cc2S(=O)(=O)N2CCNC(=O)C2)cc1F [Example 715, 6-Amino-3-{3-fluoro-2′-[(3-oxopiperazin-1-yl)sulfonyl]-4′-(trifluoromethyl)biphenyl-4-yl}pyrazine-2-carbonitrile]"
,,,414 nM,"CC(C)(C(N)=O)S(=O)(=O)c1ccccc1-c1ccc(-c2cnc(N)cn2)c(F)c1 [Example 736, 2-{[4′-(5-Aminopyrazin-2-yl)-3′-fluorobiphenyl-2-yl]sulfonyl}-2-methylpropanamide]"
,,,111 nM,"N#Cc1nc(N)cnc1-c1ccc(-c2ccccc2Oc2nccc(N)n2)cc1F [Example 745, 6-Amino-3-{2′-[(4-aminopyrimidin-2-yl)oxy]-3-fluorobiphenyl-4-yl}pyrazine-2-carbonitrile]"
